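The compound was tested at five concentrations on cells cultured in 96-well plates, with a 48-hour exposure period. At the TGI there is no net growth.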
Legend:
Assay in all cases: inhibition of tumour cell growth, NCI panel, 48 h
786-0 renal = test system: 786-0 renal
A549 NSCLC = test system: A549 NSCLC
ACHN renal = test system: ACHN renal
CAKI-1 renal = test system: CAKI-1 renal
CCRF-CEM leukemia = test system: CCRF-CEM leukemia
COLO 205 colon = test system: COLO 205 colon
DLD-1 colon = test system: DLD-1 colon
DMS 114 small cell lung = test system: DMS 114 small cell lung
DMS 273 small cell lung = test system: DMS 273 small cell lung
EKVX NSCLC = test system: EKVX NSCLC
HCC-2998 colon = test system: HCC-2998 colon
HCT-116 colon = test system: HCT-116 colon
HCT-15 colon = test system: HCT-15 colon
HOP-62 NSCLC = test system: HOP-62 NSCLC
HT29 colon = test system: HT29 colon
IGROV1 ovarian = test system: IGROV1 ovarian
K-562 leukemia = test system: K-562 leukemia
KM12 colon = test system: KM12 colon
KM20L2 colon = test system: KM20L2 colon
LOX IMVI melanoma = test system: LOX IMVI melanoma
LXFL 529 NSCLC = test system: LXFL 529 NSCLC
M14 melanoma = test system: M14 melanoma
M19-MEL melanoma = test system: M19-MEL melanoma
MALME-3M melanoma = test system: MALME-3M melanoma
MOLT-4 leukemia = test system: MOLT-4 leukemia
NCI-H23 lung = test system: NCI-H23 lung
NCI-H460 lung = test system: NCI-H460 lung
NCI-H522 lung = test system: NCI-H522 lung
OVCAR-3 ovarian = test system: OVCAR-3 ovarian
OVCAR-4 ovarian = test system: OVCAR-4 ovarian
OVCAR-8 ovarian = test system: OVCAR-8 ovarian
RPMI-8226 leukemia = test system: RPMI-8226 leukemia
RXF 393 renal = test system: RXF 393 renal
SF-295 CNS = test system: SF-295 CNS
SF-539 CNS = test system: SF-539 CNS
SK-MEL-2 melanoma = test system: SK-MEL-2 melanoma
SK-MEL-5 melanoma = test system: SK-MEL-5 melanoma
SN12C renal = test system: SN12C renal
SNB-19 CNS = test system: SNB-19 CNS
SNB-75 CNS = test system: SNB-75 CNS
SR leukemia = test system: SR leukemia
SW-620 colon = test system: SW-620 colon
TK-10 renal = test system: TK-10 renal
U251 CNS = test system: U251 CNS
UACC-257 melanoma = test system: UACC-257 melanoma
UACC-62 melanoma = test system: UACC-62 melanoma
UO-31 renal = test system: UO-31 renal
A498 renal = test system: A498 renal
HL-60(TB) leukemia = test system: HL-60(TB) leukemia
HOP-92 NSCLC = test system: HOP-92 NSCLC
NCI-H226 lung = test system: NCI-H226 lung
OVCAR-5 ovarian = test system: OVCAR-5 ovarian
SF-268 CNS = test system: SF-268 CNS
SK-MEL-28 melanoma = test system: SK-MEL-28 melanoma
SK-OV-3 ovarian = test system: SK-OV-3 ovarian
SNB-78 CNS = test system: SNB-78 CNS

Measured: TGI

CNS(=O)(=O)NNS(=O)(=O)c1cccc([N+](=O)[O-])c1
> 100 µM: 786-0 renal | A549 NSCLC | ACHN renal | CAKI-1 renal | CCRF-CEM leukemia | COLO 205 colon | DLD-1 colon | DMS 114 small cell lung | DMS 273 small cell lung | EKVX NSCLC | HCC-2998 colon | HCT-116 colon | HCT-15 colon | HOP-62 NSCLC | HT29 colon | IGROV1 ovarian | K-562 leukemia | KM12 colon | KM20L2 colon | LOX IMVI melanoma | LXFL 529 NSCLC | M14 melanoma | M19-MEL melanoma | MALME-3M melanoma | MOLT-4 leukemia | NCI-H23 lung | NCI-H460 lung | NCI-H522 lung | OVCAR-3 ovarian | OVCAR-4 ovarian | OVCAR-8 ovarian | RPMI-8226 leukemia | RXF 393 renal | SF-295 CNS | SF-539 CNS | SK-MEL-2 melanoma | SK-MEL-5 melanoma | SN12C renal | SNB-19 CNS | SNB-75 CNS | SR leukemia | SW-620 colon | TK-10 renal | U251 CNS | UACC-257 melanoma | UACC-62 melanoma | UO-31 renal

Cc1nc(-c2nc(C)c(C(=O)/C=C/c3ccc([N+](=O)[O-])cc3)s2)sc1C(=O)/C=C/c1ccc([N+](=O)[O-])cc1
> 100 µM: 786-0 renal | A498 renal | A549 NSCLC | ACHN renal | CAKI-1 renal | COLO 205 colon | DLD-1 colon | DMS 114 small cell lung | EKVX NSCLC | HCC-2998 colon | HCT-116 colon | HCT-15 colon | HL-60(TB) leukemia | HOP-62 NSCLC | HOP-92 NSCLC | HT29 colon | IGROV1 ovarian | K-562 leukemia | KM12 colon | KM20L2 colon | LOX IMVI melanoma | LXFL 529 NSCLC | M14 melanoma | M19-MEL melanoma | MALME-3M melanoma | MOLT-4 leukemia | NCI-H226 lung | NCI-H23 lung | NCI-H460 lung | OVCAR-3 ovarian | OVCAR-5 ovarian | OVCAR-8 ovarian | RPMI-8226 leukemia | RXF 393 renal | SF-268 CNS | SF-295 CNS | SF-539 CNS | SK-MEL-2 melanoma | SK-MEL-28 melanoma | SK-MEL-5 melanoma | SK-OV-3 ovarian | SN12C renal | SNB-19 CNS | SNB-75 CNS | SNB-78 CNS | SW-620 colon | TK-10 renal | U251 CNS | UACC-257 melanoma | UACC-62 melanoma | UO-31 renal
